Consider 50 compounds from patent US20200385396A1, “Compond for treatment or prevention of obesity or diseases related to obesity, and application thereof” (SHANGHAI INSTITUTES FOR BIOLOGICAL SCIENCES, CHINESE …, priority 2017, published 2020).

The test system of one data set is mice. The data set can be described thus: Inhibition of food intake in mice by HLY72/HLY78 derivatives. The class given is in vivo, mouse. The settings on record: for inhibition of food intake in mice / activity compared with HLY72: intraperitoneal, 75 umol/kg; for activity compared with HLY72 / activity relative to Hly72 / effective concentration (EC50) relative to HLY72: food intake; for activity relative to Hly72 / effective concentration (EC50) relative to HLY72: compounds 7.5 umol/kg vs Hly72 75 umol/kg; for effective concentration (EC50) relative to HLY72: 5-6 mice per group. How it is done:
All compounds are injected intraperitoneally with a concentration of 75 umol/kg (20 mg/kg of Hly72 equals 75 umol/kg). One-way ANOVA statistical analysis, *: P<0.05, **: P⋅<0.01, ***: P<0.001.
All compounds are injected intraperitoneally at a concentration of 75 umol/kg (20 mg/kg of Hly72 equals 75 umol/kg). One-way ANOVA statistics Analysis, *: P<0.05, **: P⋅<0.01, ***: P<0.001.
Intraperitoneal injection of Hly72 at a concentration of 75 umol/kg (20 mg/kg of Hly72 equals 75 umol/kg), Hgsy-98, Hybj-12a, Hybj-13a are all 7.5 umol/kg. One-way ANOVA statistical analysis, *: P<0.05, **: P⋅<0.01, ***: P<0.001.
The next question we are very concerned about is whether HLY78 has similar functions to NUCB2 protein in mice. Up to now, the most classic function reported for NUCB2 protein is to reduce the food intake of mice at night. Therefore, the experiment was designed: 20 mg/kg of HLY78 was injected intraperitoneally within two hours before turning off the lights at night, and then the food intake of the mice was measured at different time points (0-3 h, 0-6 h, 0-12 h, 0-24 h). […] During the three days of the adaptive injection period before HLY78 injection, both groups of mice were injected with DMSO. On the day of injection of HLY78 and the two days before the injection of DMSO, the body weight of the two groups of mice is also the same (FIG. 2b). […]
Experimental methods were the same as in Examples 2 and 4.
Three compounds of Hgsy-98, Hybj-12a and Hybj-13a were selected for re-experiment (5-6 mice per group).

Another data set can be described thus: Solubility (Table C). The class given is physicochemical. The settings on record: solvent named in Table C.

Turning to `CCc1cccc2c1N(C)Cc1cc(OC)ccc1-2` [Hcj12], the “inhibition of food intake in mice” value with mice is listed as “obvious effects”. Moreover, the Solubility entry in “Solubility (Table C)” was “DMSO”.
Regarding `COc1ccc2c(c1)CN(C)c1c(C)cccc1-2` [Hcj15], the Solubility entry in the data set “Solubility (Table C)” is recorded as “DMSO”.
With `Cc1cccc2c1N(C)Cc1cc(O)ccc1-2` [Hcj16], the “inhibition of food intake in mice” value with mice was “obvious effects”. Further, the Solubility result in the data set “Solubility (Table C)” is “DMSO”.
As for `C#CCOc1ccc2c(c1)CN(C)c1c(C)cccc1-2` [Hcj16d-a], the Solubility entry in the data set “Solubility (Table C)” is reported as “DMSO”.
For the compound `CCN1Cc2cc(O)ccc2-c2cccc(C)c21` [Hcj36], the Solubility entry in the data set “Solubility (Table C)” was “DMSO”.
Turning to `CCN1Cc2cc(O)c(OC)cc2-c2cccc(C)c21` [Hcj44-d], the Solubility result in the data set “Solubility (Table C)” was “DMSO”.
For the compound `C#CCOc1cc2c(cc1OCC#C)-c1cccc(C)c1N(CC)C2` [Hcj46-d], the Solubility entry in “Solubility (Table C)” is “DMSO”.
Take `COc1cc2c(cc1OC)-c1cccc(C)c1NC2` [Hcj92-a]: the Solubility result in “Solubility (Table C)” was “DMSO”.
Consider `Cc1cccc2c1N(C)Cc1cc(OCc3cc4cc(Cl)ccc4s3)ccc1-2` [Hcj194-d], for which the “inhibition of food intake in mice” value in the data set on mice was “obvious effects”. Moreover, in the data set “Solubility (Table C)”, the Solubility result is given as “DMSO”.
Consider `Cc1cccc2c1N(C)Cc1cc(OCc3cc(C)n(C)n3)ccc1-2` [Hcj221d], for which the Solubility entry in “Solubility (Table C)” is reported as “DMSO”.
Same read-out and setting: the entry for `C=CC(O)c1cccc2c3ccc(OC)cc3c(=O)n(CC)c12` (centres unmarked) [Hgsy-3] is “DMSO”; for `C=CC(O)c1cccc2c3cc(OC)c(OC)cc3c(=O)n(CC)c12` (centres unmarked) [Hgsy-25] it is “DMSO”.
For `CCn1c(=O)c2cc(OC)ccc2c2cccc(CO)c21` [Hgsy-31], the Solubility result in “Solubility (Table C)” is given as “DMSO”.
On to `CCn1c(=O)c2cc(OC)ccc2c2cccc(OC)c21` [Hgsy-32], for which the Solubility result in “Solubility (Table C)” is on record as “DMSO”.
As for `COc1cc2c(=O)n(C)c3c(OC)cccc3c2cc1OC` [Hgsy-35], the “inhibition of food intake in mice” value in the data set on mice is listed as “obvious effects”. In addition, the Solubility result in the data set “Solubility (Table C)” was “DMSO”.
As to `CCn1c(=O)c2cc(OC)c(OC)cc2c2cccc(CO)c21` [Hgsy-36], the “inhibition of food intake in mice” value in the data set on mice is listed as “obvious effects”. In addition, the Solubility entry in “Solubility (Table C)” is “DMSO”.
As for `CCCCn1c(=O)c2cc(OC)c(OC)cc2c2cccc(CO)c21` [Hgsy-43], the Solubility result in the data set “Solubility (Table C)” is “DMSO”.
`CCCCN1Cc2cc(OC)c(OC)cc2-c2cccc(CO)c21` [Hgsy-44]: the Solubility entry in “Solubility (Table C)” was “DMSO”.
`CCN1Cc2cc(OC)c(OC)cc2-c2cccc(COC(C)=O)c21` [Hgsy-47]: in “Solubility (Table C)”, the Solubility result is given as “DMSO”.
Same read-out and setting: for `CCN1Cc2cc(OC)c(OC)cc2-c2cccc(CO)c21` [Hgsy-48] the value was “DMSO”.
For the compound `CCCCn1c(=O)c2cc(OC)c(OC)cc2c2cccc(C=O)c21` [Hgsy-50], in the data set with mice, the “activity compared with HLY72” value is given as “significantly better” and the “inhibition of food intake in mice” value is listed as “obvious effects”. Further, in “Solubility (Table C)”, the Solubility entry is reported as “DMSO”.
Consider `CCn1c(=O)c2cc(OC)c(OC)cc2c2cccc(C=O)c21` [Hgsy-51], for which the Solubility entry in “Solubility (Table C)” is “DMSO”.
As to `CCCCn1c(=O)c2cc(OC)c(OC)cc2c2cccc(C(C)O)c21` (centres unmarked) [Hgsy-53], the Solubility entry in the data set “Solubility (Table C)” is “DMSO”.
In the case of `CCCCN1Cc2cc(OC)c(OC)cc2-c2cccc(C(C)O)c21` (centres unmarked) [Hgsy-55], the Solubility result in “Solubility (Table C)” is on record as “DMSO”.
Same read-out and setting: the entry for `COc1cc2c(=O)n(C)c3c(C(C)O)cccc3c2cc1OC` (centres unmarked) [Hgsy-56] is “DMSO”; for `COc1cc2c(=O)n(C)c3c(C(C)=O)cccc3c2cc1OC` [Hgsy-57] it is “DMSO”.
`C=Cc1cccc2c3cc(OC)c(OC)cc3c(=O)n(C)c12` [Hgsy-58]: the Solubility result in “Solubility (Table C)” is on record as “DMSO”.
In the case of `COc1cc2c(cc1OC)-c1cccc(C(C)O)c1N(C)C2` (centres unmarked) [Hgsy-59], the Solubility entry in “Solubility (Table C)” is listed as “DMSO”.
For `COc1cc2c(cc1OC)-c1cccc(OC)c1N(C)C2` [Hgsy-60], the Solubility entry in the data set “Solubility (Table C)” was “DMSO”.
The same measure, in the same setting: for `CCn1c(=O)c2cc(OC)ccc2c2cccc(C(C)O)c21` (centres unmarked) [Hgsy-62] the value was “DMSO”; for `CCCn1c(=O)c2cc(OC)ccc2c2cccc(C(C)O)c21` (centres unmarked) [Hgsy-64], “DMSO”; for `CCCN1Cc2cc(OC)ccc2-c2cccc(C(C)O)c21` (centres unmarked) [Hgsy-66], “DMSO”.
As to `C=Cc1cccc2c3ccc(OC)cc3c(=O)n(CC)c12` [Hgsy-67], the Solubility result in “Solubility (Table C)” is given as “DMSO”.
As to `C=Cc1cccc2c3ccc(OC)cc3c(=O)n(CCC)c12` [Hgsy-68], the Solubility result in “Solubility (Table C)” is recorded as “DMSO”.
As to `CCn1c(=O)c2cc(OC)c(OC)cc2c2cccc(C3OCCO3)c21` [Hgsy-69], in “Solubility (Table C)”, the Solubility entry is reported as “DMSO”.
On to `C/C=C/c1cccc2c3cc(OC)c(OC)cc3c(=O)n(C)c12` [Hgsy-75], for which the Solubility result in “Solubility (Table C)” is given as “DMSO”.
On to `C/C=C/c1cccc2c1N(C)Cc1cc(OC)c(OC)cc1-2` [Hgsy-78], for which, in the data set with mice, the “inhibition of food intake in mice” value is on record as “obvious effects”. The Solubility entry in the data set “Solubility (Table C)” was “DMSO”.
Regarding `C/C=C/c1cccc2c3cc(OC)c(OC)cc3c(=O)n(CCCC)c12` [Hgsy-80], in the data set on mice, the “activity compared with HLY72” value was “significantly better” and the “inhibition of food intake in mice” value is recorded as “obvious effects”. For the same compound, in the data set “Solubility (Table C)”, the Solubility result is listed as “DMSO”.
Regarding `C/C=C/c1cccc2c1N(CCCC)Cc1cc(OC)c(OC)cc1-2` [Hgsy-86], the “inhibition of food intake in mice” value with mice is listed as “obvious effects”. Further, the Solubility entry in the data set “Solubility (Table C)” is on record as “DMSO”.
For the compound `C/C=C/c1cccc2c3ccc(OC)cc3c(=O)n(C)c12` [Hgsy-89], the Solubility entry in “Solubility (Table C)” was “DMSO”.
Consider `C/C=C/c1cccc2c1N(C)Cc1cc(OC)ccc1-2` [Hgsy-92-1], for which the “inhibition of food intake in mice” value with mice is “obvious effects”. Also, the Solubility entry in the data set “Solubility (Table C)” is on record as “DMSO”.
In the case of `C/C=C/c1cccc2c3ccc(OC)cc3c(=O)n(CCCC)c12` [Hgsy-97], the Solubility entry in the data set “Solubility (Table C)” was “DMSO”.
With `C/C=C/c1cccc2c1N(CCCC)Cc1cc(OC)ccc1-2` [Hgsy-98], in the data set with mice, the “activity compared with HLY72” value is “significantly better”, the “activity relative to Hly72” value is “about 10 times” and the “effective concentration (EC50) relative to HLY72” value is given as “one tenth”. In “Solubility (Table C)”, the Solubility entry was “DMSO”.
In the case of `C=Cc1cccc2c1N(CCCCCCCCCCCCCCCCCC)Cc1cc3c(cc1-2)OCO3` [Hyb-17a], in the data set with mice, the “activity compared with HLY72” value is on record as “significantly better” and the “inhibition of food intake in mice” value is reported as “obvious effects”. In addition, the Solubility result in the data set “Solubility (Table C)” was “DMSO”.
Take `C=Cc1cccc2c1N(C)Cc1cc(OC)c(OC)cc1-2` [Hybj-1a]: the “inhibition of food intake in mice” value with mice is “obvious effects”. The Solubility result in the data set “Solubility (Table C)” is “DMSO”.
On to `C=Cc1cccc2c1N(C)Cc1cc(OCC)c(OCC)cc1-2` [Hybj-2a], for which, in the data set on mice, the “inhibition of food intake in mice” value is listed as “obvious effects”.
Consider `C=Cc1cccc2c1N(C)Cc1cc(OCCCC)c(OCCCC)cc1-2` [Hybj-3a], for which the “inhibition of food intake in mice” value with mice is reported as “obvious effects”.
As for `C=Cc1cccc2c1N(CCCCCC)Cc1cc3c(cc1-2)OCO3` [Hybj-9a], the “inhibition of food intake in mice” value with mice is on record as “obvious effects”. The Solubility entry in the data set “Solubility (Table C)” is listed as “DMSO”.
With `C=Cc1cccc2c1N(CCCCCCCCCCCC)Cc1cc3c(cc1-2)OCO3` [Hybj-13a], in the data set on mice, the “activity compared with HLY72” value was “significantly better”, the “activity relative to Hly72” value is reported as “about 10 times”, the “effective concentration (EC50) relative to HLY72” value is given as “one tenth” and the “inhibition of food intake in mice” value is “obvious effects”. Further, the Solubility result in “Solubility (Table C)” is “DMSO”.
As to `C=Cc1cccc2c1N(CCCCCCCCCC)Cc1cc3c(cc1-2)OCO3` [Hyj-12a], in the data set on mice, the “activity compared with HLY72” value is reported as “significantly better”, the “activity relative to Hly72” value is recorded as 30-40 times, the “effective concentration (EC50) relative to HLY72” value is “one tenth” and the “inhibition of food intake in mice” value is reported as “obvious effects”. Also, in “Solubility (Table C)”, the Solubility entry is “DMSO”.
